According to US9533937B2, “Use of metal scavengers for removal of ruthenium residues” (Apeiron Synthesis S.A., priority 2013, dated 2017):

Assay: Solubility in solvents
Assay type: physicochemical

Q: Which solubility in solvents does the source give for `[C-]#[N+]CC(=O)[O-].[K+]` [CNCH2CO2K] here?
A: well soluble only in very polar solvents such as water and alcohols
